Counter-ions that a name gives are not always drawn.
How the values were obtained:
[1] = tested on: mice with type II collagen-induced arthritis; assay: Test Example 4: feed given from day 28 (after induction), type II collagen-induced arthritis score; assay type: in vivo, DBA/1J mice; settings: day 0 (before feeding); 0.1% in feed starting at day 28; mean ±SE, N=10; scale 0-16
[2] = tested on: mice with type II collagen-induced arthritis; assay: Test Example 1: N-acetylhydroxyproline and glucosamine in feed, type II collagen-induced arthritis score; assay type: in vivo, DBA/1J mice; settings: for Scores compared with control (in words): 0.1% added to the feed, compared with no additive (control); for Score of arthritis: 0.1% in feed from day of first collagen administration, mean ±SE, N=20, scale 0-16
Description: (§1) Unless otherwise noted, in the following test examples, DBA/1J mice produced by Charles River, powder feed CE2 produced by CLEA Japan, N-acetylhydroxyproline produced by Kyowa Hakko Kogyo, D-glucosamine sulfate 2NaCl as glucosamine (Miyako Kagaku) and chondroitin sodium sulfate (Maruha Kagaku) as chondtoitin were used.
It is known that arthritis is induced in DBA/1J mice by administering type II collagen two times.
As the first administration of type II collagen, a solution prepared by mixing an equal amount of type II collagen [Collagen Gijutsu Kenshu Kaisha (MCK)] and Freund's complete adjuvant (Iatron) and emulsifying the mixture using a homogenizer was intradermally administered to 6-week old male DBA/1J mice in an amount of 100 μl per one animal.
Twenty-one days after the first administration of type II collagen, EXAMPLE a solution prepared by mixing an equal amount of type II collagen and Freund's complete adjuvant and emulsifying the mixture using a homogenizer in a similar manner was intradermally administered to the animals in an amount of 100 μl per one animal as the second administration of type II collagen. In this manner, arthritis was induced in mice.
Starting on the day of the first administration of type II collagen, the mice were given powder feed CE-2 containing no additive as control; powder feed CE-2 containing 0.1% N-acetylhydroxyproline (indicated as AcHYP in Tables 1-1 and 1-2); powder feed CE-2 containing 0.1% glucosamine (D-glucosamine sulfate 2NaCl); and powder feed CE-2 containing 0.05% N-acetylhydroxyproline and 0.05% glucosamine, respectively. At days 24, 28, 31, 34, 38 and 42 after the first administration of type II collagen, the extent of the development of arthritis was scored according to the following indices.
(§2) Scoring was carried out by applying 0-4 points with respect to one of four paws of mice: 0: no symptom; 1: swelling of one finger or swelling (slight) of the ankle; 2: swelling of 1-3 fingers or swelling of the ankle; 3: swelling of 3-5 fingers plus swelling of the ankle; and 4: swelling of all the fingers plus swelling of the ankle. Each mouse was scored the total of the points of 4 paws, namely, 0-16 points.
(§3) Twenty mice were subjected to the test with respect to each of the conditions.
(§4) In the tables, the figures show the scores under different treatment conditions, which are given as mean ±SE (N=20).
(§5) In the tables, “no treatment” means no administration of type II collagen, and “control” means mice were given the feed containing no additive.

[3] = tested on: mice with type II collagen-induced arthritis; assay: Test Example 4: feed given from day 28 (after induction), type II collagen-induced arthritis score; assay type: in vivo, DBA/1J mice; settings: for Scores compared with control (in words): 0.1% added to the feed from day 28, any of the days after day 33; for Score of arthritis: 0.1% in feed starting at day 28, mean ±SE, N=10, scale 0-16
Protocol: as §1, §2
(§6) As in Test Example 1, 21 days after the first administration of type II collagen, a solution prepared by mixing an equal amount of type II collagen and Freund's complete adjuvant and emulsifying the mixture using a homogenizer in a similar manner as in Test Example 1 was intradermally administered to the mice in an amount of 100 μl per one animal as the second administration of type II collagen. In this manner, arthritis was induced in mice.
Starting at day 28 after the first administration of type II collagen, the mice were given powder feed CE-2 containing no additive as control; powder feed CE-2 containing 0.1% N-acetylhydroxyproline (indicated as AcHYP in Tables 4-1 and 4-2); powder feed CE-2 containing 0.1% glucosamine; powder feed CE-2 containing 0.05% N-acetylhydroxyproline and 0.05% glucosamine; powder feed CE-2 containing 0.05% glucosamine and 0.05% chondroitin; and powder feed CE-2 containing 0.05% N-acetylhydroxyproline, 0.025% glucosamine and 0.025% chondroitin, respectively. At days 28, 33, 36, 39 and 42 after the first administration of type II collagen, the extent of the development of arthritis was scored according to the indices employed in the above Test Example 1.
Ten mice were subjected to the test with respect to each of the conditions.
In the tables, the figures show the scores under different treatment conditions, which are given as mean ±SE (N=10).
as §5

[4] = tested on: mice with type II collagen-induced arthritis; assay: Test Example 3: N-acetylhydroxyproline, glucosamine and chondroitin in feed, type II collagen-induced arthritis score; assay type: in vivo, DBA/1J mice; settings: for Score of arthritis: 0.05% of each additive in feed from day of first collagen administration, mean ±SE, N=20, scale 0-16
Protocol: as §1, §2
An experiment similar to that of Test Example 1 was carried out except that glucosamine and chondroitin were used in place of glucosamine.
as §6, with “That is,” for “As in Test Example 1,”
Starting on the day of the first administration of type II collagen, the mice were given powder feed CE-2 containing no additive as control; powder feed CE-2 containing 0.05% N-acetylhydroxyproline (indicated as AcHYP in Tables 3-1 and 3-2); powder feed CE-2 containing 0.05% N-acetylhydroxyproline and 0.05% chondroitin; and powder feed CE-2 containing 0.05% N-acetylhydroxyproline, 0.05% glucosamine and 0.05% chondroitin, respectively. At days 24, 28, 31, 35, 38 and 42 after the first administration of type II collagen, the extent of the development of arthritis was scored according to the indices employed in the above Test Example 1.
as §3, §4, §5

arthritis = settings: Pharmacological Research, 33, 367-373 (1996); cited from earlier work
[5] = tested on: mice with type II collagen-induced arthritis; assay: Test Example 2: N-acetylhydroxyproline and chondroitin in feed, type II collagen-induced arthritis score; assay type: in vivo, DBA/1J mice; parameters: key to Score of arthritis: sum of 4 paws scored 0-4 each, 0-16 points; 0 = no symptom; settings: for Score compared with control (in words): 0.1% added to the feed; for Score of arthritis: 0.1% in feed from day of first collagen administration, mean ±SE, N=20, scale 0-16
Protocol: as §1, §2
An experiment similar to that of Test Example 1 was carried out except that chondroitin was used in place of glucosamine.
as §6, with “That is,” for “As in Test Example 1,”
Starting on the day of the first administration of type II collagen, the mice were given powder feed CE-2 containing no additive as control; powder feed CE-2 containing 0.1% N-acetylhydroxyproline (indicated as AcHYP in Tables 2-1 and 2-2); powder feed CE-2 containing 0.1% chondroitin; and powder feed CE-2 containing 0.05% N-acetylhydroxyproline and 0.05% chondroitin, respectively. At days 23, 27, 30, 33, 36, 40 and 42 after the first administration of type II collagen, the extent of the development of arthritis was scored according to the indices employed in the above Test Example 1.
as §3, §4, §5

[6] = tested on: animal model for arthritis; settings: administration after induction of arthritis; J. Drug. Dev., 3, 135-142 (1990); cited from earlier work

Compound | Score of arthritis [1] | Scores compared with control (in words) [2] | Score of arthritis ([2]; day 0) | Score of arthritis ([2]; day 24) | Score of arthritis ([2]; day 28) | Score of arthritis ([2]; day 31) | Score of arthritis ([2]; day 34) | Score of arthritis ([2]; day 38) | Score of arthritis ([2]; day 42) | Scores compared with control (in words) [3] | Score of arthritis ([3]; day 28 (start of feeding)) | Score of arthritis ([3]; day 33) | Score of arthritis ([3]; day 36) | Score of arthritis ([3]; day 39) | Score of arthritis ([3]; day 42) | Score of arthritis ([5]; day 0) | Score of arthritis ([5]; day 23) | Score of arthritis ([5]; day 27) | Score of arthritis ([5]; day 30) | Score of arthritis ([5]; day 33) | also measured
CC(=O)N1C[C@H](O)C[C@H]1C(=O)O [AcHYP, N-acetylhydroxyproline] | 0.0 ± 0.0 | lowering of the scores | 0.0 ± 0.0 | 0.0 ± 0.0 | 6.5 ± 0.7 | 9.5 ± 0.8 | 10.7 ± 0.8 | 10.8 ± 0.8 | 10.6 ± 0.8 | slight lowering of the scores | 4.3 ± 0.9 | 9.8 ± 1.0 | 10.9 ± 1.1 | 10.7 ± 1.1 | 10.8 ± 1.0 | 0.0 ± 0.0 | 0.1 ± 0.1 | 3.3 ± 0.7 | 7.0 ± 0.9 | 7.8 ± 0.9 | Scores compared with control (in words) ([4]; 0.05% of each additive in the feed, any of the days after day 24): almost no lowering of the scores; Score of arthritis ([4]; day 0): 0.0 ± 0.0; Score of arthritis ([4]; day 24): 0.2 ± 0.1; Score of arthritis ([4]; day 28): 5.4 ± 0.6; Score of arthritis ([4]; day 31): 8.5 ± 0.7; Score of arthritis ([4]; day 35): 9.4 ± 0.8; Score of arthritis ([4]; day 38): 9.9 ± 0.8; Score of arthritis ([4]; day 42): 9.4 ± 0.7; Effect on chondral injury at joints (arthritis): shows no effect; Effect on systemic injury of ear and tail (arthritis): shows a therapeutic effect; Score compared with control (in words) ([5]; any of the days after day 27): lowering of the score; Score of arthritis ([5]; day 36): 7.9 ± 1.0; Score of arthritis ([5]; day 40): 8.4 ± 0.9; Score of arthritis ([5]; day 42): 8.8 ± 0.8; Aggravation of arthritis [6]: can prevent aggravation of arthritis
chondroitin sodium sulfate |  |  |  |  |  |  |  |  |  |  |  |  |  |  |  | 0.0 ± 0.0 | 0.1 ± 0.1 | 3.4 ± 0.6 | 7.8 ± 1.0 | 9.1 ± 0.9 | Score compared with control (in words) ([5]; after day 36): almost no lowering of the score; Score compared with control (in words) ([5]; until day 33): slight lowering of the score; Score of arthritis ([5]; day 36): 9.7 ± 0.8; Score of arthritis ([5]; day 40): 9.9 ± 0.8; Score of arthritis ([5]; day 42): 9.8 ± 0.7
N[C@H]1C(O)O[C@H](CO)[C@@H](O)[C@@H]1O (stereo partly drawn) [Glucosamine, D-glucosamine sulfate 2NaCl] | 0.0 ± 0.0 | lowering of the scores | 0.0 ± 0.0 | 0.1 ± 0.1 | 5.8 ± 0.6 | 7.7 ± 0.7 | 9.2 ± 0.7 | 9.5 ± 0.6 | 9.4 ± 0.6 | slight lowering of the scores | 4.3 ± 0.9 | 9.8 ± 1.2 | 10.1 ± 1.1 | 10.4 ± 1.0 | 10.6 ± 1.0 |  |  |  |  |  | 
